Reference: patent publication US20210309657A1, “TRICYCLIC COMPOUNDS FOR THE TREATMENT AND PROPHYLAXIS OF BACTERIAL INFECTION” (Hoffmann-La Roche Inc., priority 2018, published 2021)
Converted amounts (≈) assume the structure as drawn. Read-outs that look alike come from different tables or passages of the source.

Experiments:
[1] = system: A. baumannii (ATCC17978); assay: 50% growth inhibitory concentration (IC50) determination assay, A. baumannii; type: cell-based; details: Acinetobacter baumannii, growth inhibition, Iso-Sensitest broth, OD 600 nm over 16h, <0.098 = the detection limit
Description: (§1) The in vitro antimicrobial activity of the compounds against S. aureus (ATCC29213), K. pneumoniae (ATCC10031), and A. baumannii (ATCC17978), was determined according to the following procedure: The assay used a 10-points Iso-Sensitest broth medium to measure quantitatively the in vitro activity of the compounds against S. aureus ATCC29213, K. pneumoniae ATCC 10031, and A. baumannii ATCC17978. Stock compounds in DMSO were serially two-fold diluted (range from 50 to 0.097 μM final concentration) in 384 wells microtiter plates and inoculated with 49 μL the bacterial suspension in Iso-Sensitest broth medium to have a final cell concentration of ˜5×10^5 CFU/mL in a final volume/well of 50 μL/well. Microtiter plates were incubated at 35±2° C. Bacterial cell growth was determined with the measurement of optical density at λ=600 nm each 20 minutes over a time course of 16h. Growth inhibition was calculated during the logarithmic growth of the bacterial cells with determination of the concentration inhibiting 50% (IC50) of the growth. Compounds of the present invention were tested for their concentration inhibiting 50% (IC50). The data of IC50 over S. aureus (ATCC29213), K. pneumoniae (ATCC10031), and A. baumannii (ATCC17978) are illustrated in Table 4.

[2] = Lyophilisation solubility assay (LYSA); type: physicochemical; details: thermodynamic from solid
Description: The solubility of compounds of present invention was assessed by LYSA assay. Samples were prepared in duplicate from 10 mM DMSO stock solutions ([…]) diluted in 30 μL pure DMSO. After evaporation of DMSO with a centrifugal vacuum evaporator, the residue was dissolved in 0.05 M phosphate buffer (150 μL, pH 6.5), which was stirred for one hour and shook for two hours. After one night, the solution was filtered using a microtiter filter plate. Then the filtrate and its 1/10 dilution were analyzed by HPLC-UV. In addition, a four-point calibration curve was prepared from the 10 mM stock solutions and used for the solubility determination of the compounds.

[3] = system: K. pneumoniae (ATCC10031); assay: 50% growth inhibitory concentration (IC50) determination assay, K. pneumoniae; type: cell-based; details: Klebsiella pneumoniae, growth inhibition, Iso-Sensitest broth, OD 600 nm over 16h, <0.098 = the detection limit
Description: as §1

[4] = system: S. aureus (ATCC29213); assay: 50% growth inhibitory concentration (IC50) determination assay, S. aureus; type: cell-based; details: Staphylococcus aureus, growth inhibition, Iso-Sensitest broth, OD 600 nm over 16h, <0.098 = the detection limit
Description: as §1

[5] = aqueous buffer, 0.05 M phosphate buffer, pH 6.5, HPLC-UV, <1.0 = the detection limit, read-out: Lysa

IC50 [1]	solubility thermodynamic [2, 5]	IC50 [3]	IC50 [4]	Compound	solubility thermodynamic ([2]; pH 6.5, aqueous buffer)
< 98 nM	410 µg/mL (≈ 935 µM)	189 nM	1110 nM	CNc1c(F)c(F)cc2c1[nH]c1ncc(-c3cnc(C4(C(=O)O)CC4)nc3)c(N(C)C)c12 [Example 2.03, 1-(5-(4-(dimethylamino)-6,7-difluoro-8-(methylamino)-9H-pyrido[2,3-b]indol-3-yl)pyrimidin-2-yl)cyclopropanecarboxylic acid]	–
411 nM	125 µg/mL (≈ 263 µM)	< 98 nM	559 nM	CNc1cc(F)c(F)c2c1[nH]c1ncc(-c3cnc(OC)nc3)c(N3CC(CN)C(F)(F)C3)c12 (stereo not drawn) [Example 3.03, 4-[4-(aminomethyl)-3,3-difluoro-pyrrolidin-1-yl]-5,6-difluoro-3-(2-methoxypyrimidin-5-yl)-N-methyl-9H-pyrido[2,3-b]indol-8-amine]	–
485 nM	16 µg/mL (≈ 34.1 µM)	< 98 nM	649 nM	CNc1cc(F)c(F)c2c1[nH]c1ncc(-c3cncc(C#N)c3)c(N3CC(CN)C(F)(F)C3)c12 (stereo not drawn) [Example 3.04, 5-[4-[4-(aminomethyl)-3,3-difluoro-pyrrolidin-1-yl]-5,6-difluoro-8-(methylamino)-9H-pyrido[2,3-b]indol-3-yl]pyridine-3-carbonitrile]	–
847 nM	> 575 µg/mL	< 98 nM	631 nM	CNc1cc(F)cc2c1[nH]c1ncc(-c3cnc(OC)nc3)c(C3(CN)CC3)c12 [Example 4.01, 4-(1-(Aminomethyl)cyclopropyl)-6-fluoro-3-(2-methoxypyrimidin-5-yl)-N-methyl-9H-pyrido[2,3-b]indol-8-amine]	–
< 98 nM	< 1 µg/mL	< 98 nM	< 98 nM	CNc1cc(F)c(F)c2c1[nH]c1ncc(-c3cnc(C)nc3)c(N3C[C@H]4C[C@@H]3C[C@H]4N)c12 [GP-6, reference compound]	–

Continued, molecule first:

Compound	IC50 [1]	solubility thermodynamic [2, 5]	IC50 [3]	IC50 [4]	solubility thermodynamic ([2]; pH 6.5, aqueous buffer)
CNc1cc(F)c(F)c2c1[nH]c1ncc(-c3cnc(OC)nc3)c(N3CCCC(N)C3)c12 (stereo not drawn) [Example 1.47, 4-(3-Aminopiperidin-1-yl)-5,6-difluoro-3-(2-methoxypyrimidin-5-yl)-N-methyl-9H-pyrido[2,3-b]indol-8-amine]	443 nM	19 µg/mL (≈ 43.2 µM)	< 98 nM	275 nM	–
CCNc1cc(F)c(F)c2c1[nH]c1ncc(-c3cnc(OC)nc3)c(N3CCC[C@@H](CN)C3)c12 [Example 1.53, (S)-4-(3-(Aminomethyl)piperidin-1-yl)-N-ethyl-5,6-difluoro-3-(2-methoxypyrimidin-5-yl)-9H-pyrido[2,3-b]indol-8-amine]	< 98 nM	241 µg/mL (≈ 515 µM)	< 98 nM	394 nM	–
CNc1cc(F)c(F)c2c1[nH]c1ncc(-c3cncc(C#N)c3)c(N3CCCC(F)(CN)C3)c12 (stereo not drawn) [Example 1.54, 5-[4-[3-(Aminomethyl)-3-fluoro-1-piperidyl]-5,6-difluoro-8-(methylamino)-9H-pyrido[2,3-b]indol-3-yl]pyridine-3-carbonitrile]	< 98 nM	39 µg/mL (≈ 83.8 µM)	< 98 nM	477 nM	–
CNc1cc(F)c(F)c2c1[nH]c1ncc(-c3cnc(OC)nc3)c(N3C4CNCC3C4)c12 [Example 1.57, 4-(3,6-Diazabicyclo[3.1.1]heptan-6-yl)-5,6-difluoro-3-(2-methoxypyrimidin-5-yl)-N-methyl-9H-pyrido[2,3-b]indol-8-amine]	314 nM	–	< 98 nM	286 nM	91 µg/mL (≈ 208 µM)
CCOc1ncc(-c2cnc3[nH]c4c(NC)cc(F)cc4c3c2N2C3CNCC2C3)cn1 [Example 1.59, 4-(3,6-Diazabicyclo[3.1.1]heptan-6-yl)-3-(2-ethoxypyrimidin-5-yl)-6-fluoro-N-methyl-9H-pyrido[2,3-b]indol-8-amine]	499 nM	–	< 98 nM	631 nM	395 µg/mL (≈ 911 µM)
CNc1cc(F)cc2c1[nH]c1ncc(-c3cnc(OC)nc3)c(N3C4CNCC3C4)c12 [Example 1.61, 4-(3,6-Diazabicyclo[3.1.1]heptan-6-yl)-6-fluoro-3-(2-methoxypyrimidin-5-yl)-N-methyl-9H-pyrido[2,3-b]indol-8-amine]	792 nM	–	< 98 nM	650 nM	62 µg/mL (≈ 148 µM)
CNc1cc(F)c(F)c2c1[nH]c1ncc(-c3cnc(C4(C(=O)O)CC4)nc3)c(N(C)C)c12 [Example 2.02, 1-[5-[4-(dimethylamino)-5,6-difluoro-8-(methylamino)-9H-pyrido[2,3-b]indol-3-yl]pyrimidin-2-yl]cyclopropanecarboxylic acid]	< 98 nM	160 µg/mL (≈ 365 µM)	391 nM	474 nM	–
